Consider two compounds from patent publication US20240066075A1, “METHODS AND USES OF MICROBIOME COMPOSITIONS, COMPONENTS, OR METABOLITES FOR TREATING EYE DISORDERS” (MarvelBiome, Inc., priority 2021, published 2024).

The structures appear in SMILES notation.

The assay concerns NaIO3-treated ARPE-19 cells. Put plainly: NaIO3-induced degradation of ARPE-19 cells, MTT cell viability assay. Type of assay: cell-based, human. To be noted: 16 hours. As for the experimental part: Cell Culture: ARPE-19 passages 3-7 were used for all experiments. Cells were cultured in %-well plates in DMEM:F12 with 10% of FBS, and incubated at 37° C. with 5% CO2 humidified atmosphere. […] Cell Viability Assay: The colorimetric MTT assay was used to check cell viability. […] At the same time different MBTs, labeled 1 through 10 and summarized in FIG. 2 and Table 2 below, were given to the treatment group at a concentration of 10^6 CFU. After 16 hours of incubation, the absorbance cell viability was evaluated by spectrophotometrically using a microplate reader at 600 nm. Cell Culture: ARPE-19 passages 3-7 were used for all experiments. Cells were cultured in 96-well plates in DMEM:F12 with 10% of FBS, and incubated at 37° C. with 5% CO2 humidified atmosphere. […] Cell Viability Assay: The colorimetric MTT assay was used to check cell viability. […] In the control group, cells were treated only with DMEM:F12 (control media; labeled 'mock-treated' in FIG. 3). […] After 16 hours of incubation, the absorbance cell viability was evaluated by spectrophotometrically using a microplate reader at 600 nm. […] After 16 hours of incubation, the absorbance cell viability was evaluated by spectrophotometrically using a microplate reader at 600 nm. […] After 16 hours of incubation, the absorbance cell viability was evaluated by spectrophotometrically using a microplate reader at 600 nm.
On the technique in general: Tetrazolium assays rely on reduction of a dye to a coloured formazan, in cell work by metabolically active cells.

In the case of `O=C(CO)[C@@H](O)[C@H](O)[C@@H](O)C(=O)O` [5-keto-gluconate], the “cell viability of NaIO3-treated ARPE-19 cells compared to controls (MTT)” value (1200 μg/ml NaIO3, all tested concentrations of 5-keto-gluconate (0.1%, 0.2%, 0.4%, 0.5% w/v)) was “improved cell viability”. On to `O=C(O)C(=O)[C@@H](O)[C@H](O)[C@H](O)CO` [2-keto-gluconate], for which the “cell viability of NaIO3-treated ARPE-19 cells compared to controls (MTT)” value (1200 μg/ml NaIO3, 0.1% (w/v) of 2-keto-gluconate) was “improved cell viability”.
